{"source": "patent US20190343908A1", "about": "“Therapeutic Combination for the Treatment of Cancer” (Nerium Biotechnology Inc., priority 2011, published 2019)", "key": {"[1]": {"tested_on": "PC3 (human prostate cancer)", "assay": "Sulforhodamine B viability assay, PC3", "format": "cell-based", "source_text": "Three different viability assays were chosen to complement each other and yielded results dependent on concentration and cell line: the Methyl Tetrazolium dye assay, the Sulforhodamine B fluorescent dye assay, and the Crystal Violet dye assay.\n(§1) The Sulforhodamine B and Crystal Violet assays provide information about protein and were used to complement the Methyl-Tetrazolium dye assay. […] It is used for the quantification of cellular proteins of cultured cells. The assay using Crystal Violet, a dye that binds electrostatically to proteins and stains DNA, provides a reliable, simple assay for measuring viability of cells.\n(§2) The Methyl Tetrazolium, Sulforhodamine B, and Crystal Violet assays were used to assess cell viabilities. The incubation times were 24 hours, 48 hours, and 72 hours. The Nerium oleander extract Anvirzel™ (a hot water extract of oleander obtained from Salud Integral, Honduras) was tested in concentrations ranging from 0.01 ng/mL to 10 ng/mL.\n(§3) Cells were detached by trypsinization (Trypsin-0.25% EDTA, Invitrogen, 25200-072) during the logarithmic phase of culture growth and plated in 96-well plates (18.000 cells/well) (Corning, Costar 359) in a final volume of 200 μl of medium per well. […] The absorbance was measured after 24 hours, 48 hours, and 72 hours of incubation.\nFor the Sulforhodamine B assay, 96-well plates were fixed by 10% trichloroacetic acid (Fluka, 91228) and were incubated at 4° C. for 1 hour. Afterwards, plates were rinsed with water and cells were stained with 0.4% Sulforhodamine B (Sigma, 341738), dissolved in 1% acetic acid (Carlo Ebra, 401422) for 15 minutes at room temperature (RT). The unbound stain was washed twice with 1% acetic acid. Finally, 10 mM Tris Buffer pH 10.5 (Sigma, T6791) was added to dissolve the dye.\n(§4) The optical density of each plate was measured on a μQuant spectrophotometer and the data were analyzed with Gen5 software (μQuant Biomolecular Spectrophotometer MQX200 and Gen5™ Microplate Data Collection & Analysis software, BioTek® Instruments. Inc, April 2008). Absorbance was measured at 570 nm for all assays and a second wavelength was measured in order to subtract noise. For the Methyl-Tetrazolium assay this second wavelength was 630 nm and for the Sulforhodamine B and Crystal Violet assays it was 690 nm."}, "[2]": {"tested_on": "CALU-1 (non-small cell lung carcinoma)", "assay": "Crystal Violet viability assay, CALU-1", "format": "cell-based, human", "source_text": "as §1, §2, §3\nFor the Crystal Violet assay, the medium was removed from the 96-well plates, the plates rinsed with PBS (Sigma, P3813) and then the cells were […] by the addition of 10% formalin (MERCK, 1.04003.2500) for 20 minutes at RT. Formalin was removed and 0.25% aqueous crystal violet (Sigma, HT901), dissolved in water, was added for 10 minutes at RT. Unbound Crystal Violet was rinsed by washing with water and finally 33% acetic acid was added to dissolve the dye.\nas §4"}}}
{"compound": "N.N.[Cl][Pt][Cl]", "note": "[cisplatin]", "values": [{"measurement": "SRB Average", "setting": "[1]; PC3 Run 1, 24 h, 0.1 μg/ml CDDP", "value": 2.058}, {"measurement": "SRB Average", "setting": "[1]; PC3 Run 1, 24 h, 1 μg/ml CDDP", "value": 1.352}, {"measurement": "SRB Average", "setting": "[1]; PC3 Run 1, 24 h, 10 μg/ml CDDP", "value": 1.604}, {"measurement": "SRB Average", "setting": "[1]; PC3 Run 1, 24 h, 100 μg/ml CDDP", "value": 1.605}, {"measurement": "SRB Average", "setting": "[1]; PC3 Run 1, 48 h, 0.1 μg/ml CDDP", "value": 2.343}, {"measurement": "SRB Average", "setting": "[1]; PC3 Run 1, 48 h, 1 μg/ml CDDP", "value": 1.677}, {"measurement": "SRB Average", "setting": "[1]; PC3 Run 1, 48 h, 10 μg/ml CDDP", "value": 2.159}, {"measurement": "SRB Average", "setting": "[1]; PC3 Run 1, 48 h, 100 μg/ml CDDP", "value": 1.851}, {"measurement": "SRB Average", "setting": "[1]; PC3 Run 1, 72 h, 0.1 μg/ml CDDP", "value": 2.256}, {"measurement": "SRB Average", "setting": "[1]; PC3 Run 1, 72 h, 1 μg/ml CDDP", "value": 2.227}, {"measurement": "SRB Average", "setting": "[1]; PC3 Run 1, 72 h, 10 μg/ml CDDP", "value": 2.554}, {"measurement": "SRB Average", "setting": "[1]; PC3 Run 1, 72 h, 100 μg/ml CDDP", "value": 1.543}, {"measurement": "SRB Average", "setting": "[1]; PC3 Run 2, 24 h, 0.1 μg/ml CDDP", "value": 1.578}, {"measurement": "SRB Average", "setting": "[1]; PC3 Run 2, 24 h, 1 μg/ml CDDP", "value": 1.469}, {"measurement": "SRB Average", "setting": "[1]; PC3 Run 2, 24 h, 10 μg/ml CDDP", "value": 1.403}, {"measurement": "SRB Average", "setting": "[1]; PC3 Run 2, 24 h, 100 μg/ml CDDP", "value": 1.5}, {"measurement": "SRB Average", "setting": "[1]; PC3 Run 2, 48 h, 0.1 μg/ml CDDP", "value": 2.279}, {"measurement": "SRB Average", "setting": "[1]; PC3 Run 2, 48 h, 1 μg/ml CDDP", "value": 2.066}, {"measurement": "SRB Average", "setting": "[1]; PC3 Run 2, 48 h, 10 μg/ml CDDP", "value": 2.144}, {"measurement": "SRB Average", "setting": "[1]; PC3 Run 2, 48 h, 100 μg/ml CDDP", "value": 1.77}, {"measurement": "SRB Average", "setting": "[1]; PC3 Run 2, 72 h, 0.1 μg/ml CDDP", "value": 2.069}, {"measurement": "SRB Average", "setting": "[1]; PC3 Run 2, 72 h, 1 μg/ml CDDP", "value": 1.64}, {"measurement": "SRB Average", "setting": "[1]; PC3 Run 2, 72 h, 10 μg/ml CDDP", "value": 1.63}, {"measurement": "SRB Average", "setting": "[1]; PC3 Run 2, 72 h, 100 μg/ml CDDP", "value": 1.271}, {"measurement": "SRB Average", "setting": "[1]; PC3 Run 3, 24 h, 0.1 μg/ml CDDP", "value": 1.595}, {"measurement": "SRB Average", "setting": "[1]; PC3 Run 3, 24 h, 1 μg/ml CDDP", "value": 1.326}, {"measurement": "SRB Average", "setting": "[1]; PC3 Run 3, 24 h, 10 μg/ml CDDP", "value": 1.24}, {"measurement": "SRB Average", "setting": "[1]; PC3 Run 3, 24 h, 100 μg/ml CDDP", "value": 1.125}, {"measurement": "SRB Average", "setting": "[1]; PC3 Run 3, 48 h, 0.1 μg/ml CDDP", "value": 1.52}, {"measurement": "SRB Average", "setting": "[1]; PC3 Run 3, 48 h, 1 μg/ml CDDP", "value": 1.1}, {"measurement": "SRB Average", "setting": "[1]; PC3 Run 3, 48 h, 10 μg/ml CDDP", "value": 1.474}, {"measurement": "SRB Average", "setting": "[1]; PC3 Run 3, 48 h, 100 μg/ml CDDP", "value": 1.153}, {"measurement": "SRB Average", "setting": "[1]; PC3 Run 3, 72 h, 0.1 μg/ml CDDP", "value": 1.643}, {"measurement": "SRB Average", "setting": "[1]; PC3 Run 3, 72 h, 1 μg/ml CDDP", "value": 1.069}, {"measurement": "SRB Average", "setting": "[1]; PC3 Run 3, 72 h, 10 μg/ml CDDP", "value": 1.122}, {"measurement": "SRB Average", "setting": "[1]; PC3 Run 3, 72 h, 100 μg/ml CDDP", "value": 0.839}, {"measurement": "Average CVE 24 h", "setting": "[2]; CALU-1 Run 1, 0.1 μg/ml CDDP", "value": 0.554}, {"measurement": "Average CVE 48 h", "setting": "[2]; CALU-1 Run 1, 0.1 μg/ml CDDP", "value": 0.652}, {"measurement": "Average CVE 72 h", "setting": "[2]; CALU-1 Run 1, 0.1 μg/ml CDDP", "value": 0.441}, {"measurement": "Average CVE 24 h", "setting": "[2]; CALU-1 Run 1, 1 μg/ml CDDP", "value": 0.231}, {"measurement": "Average CVE 48 h", "setting": "[2]; CALU-1 Run 1, 1 μg/ml CDDP", "value": 0.661}, {"measurement": "Average CVE 72 h", "setting": "[2]; CALU-1 Run 1, 1 μg/ml CDDP", "value": 0.135}, {"measurement": "Average CVE 24 h", "setting": "[2]; CALU-1 Run 1, 10 μg/ml CDDP", "value": 0.421}, {"measurement": "Average CVE 48 h", "setting": "[2]; CALU-1 Run 1, 10 μg/ml CDDP", "value": 0.503}, {"measurement": "Average CVE 72 h", "setting": "[2]; CALU-1 Run 1, 10 μg/ml CDDP", "value": 0.157}, {"measurement": "Average CVE 24 h", "setting": "[2]; CALU-1 Run 1, 100 μg/ml CDDP", "value": 0.306}, {"measurement": "Average CVE 48 h", "setting": "[2]; CALU-1 Run 1, 100 μg/ml CDDP", "value": 0.409}, {"measurement": "Average CVE 72 h", "setting": "[2]; CALU-1 Run 1, 100 μg/ml CDDP", "value": 0.125}, {"measurement": "Average CVE 24 h", "setting": "[2]; CALU-1 Run 2, 0.1 μg/ml CDDP", "value": 0.484}, {"measurement": "Average CVE 48 h", "setting": "[2]; CALU-1 Run 2, 0.1 μg/ml CDDP", "value": 0.886}, {"measurement": "Average CVE 72 h", "setting": "[2]; CALU-1 Run 2, 0.1 μg/ml CDDP", "value": 0.786}, {"measurement": "Average CVE 24 h", "setting": "[2]; CALU-1 Run 2, 1 μg/ml CDDP", "value": 0.576}, {"measurement": "Average CVE 48 h", "setting": "[2]; CALU-1 Run 2, 1 μg/ml CDDP", "value": 0.563}, {"measurement": "Average CVE 72 h", "setting": "[2]; CALU-1 Run 2, 1 μg/ml CDDP", "value": 0.214}, {"measurement": "Average CVE 24 h", "setting": "[2]; CALU-1 Run 2, 10 μg/ml CDDP", "value": 0.64}, {"measurement": "Average CVE 48 h", "setting": "[2]; CALU-1 Run 2, 10 μg/ml CDDP", "value": 0.46}, {"measurement": "Average CVE 72 h", "setting": "[2]; CALU-1 Run 2, 10 μg/ml CDDP", "value": 0.254}, {"measurement": "Average CVE 24 h", "setting": "[2]; CALU-1 Run 2, 100 μg/ml CDDP", "value": 0.416}, {"measurement": "Average CVE 48 h", "setting": "[2]; CALU-1 Run 2, 100 μg/ml CDDP", "value": 0.352}, {"measurement": "Average CVE 72 h", "setting": "[2]; CALU-1 Run 2, 100 μg/ml CDDP", "value": 0.344}, {"measurement": "Average CVE 24 h", "setting": "[2]; CALU-1 Run 3, 0.1 μg/ml CDDP, 24 h", "value": 0.492}, {"measurement": "Average CVE 48 h", "setting": "[2]; CALU-1 Run 3, 0.1 μg/ml CDDP, 48 h", "value": 0.389}, {"measurement": "Average CVE 72 h", "setting": "[2]; CALU-1 Run 3, 0.1 μg/ml CDDP, 72 h", "value": 0.505}, {"measurement": "Average CVE 24 h", "setting": "[2]; CALU-1 Run 3, 1 μg/ml CDDP, 24 h", "value": 0.255}, {"measurement": "Average CVE 72 h", "setting": "[2]; CALU-1 Run 3, 1 μg/ml CDDP, 72 h", "value": 0.184}, {"measurement": "Average CVE 24 h", "setting": "[2]; CALU-1 Run 3, 10 μg/ml CDDP, 24 h", "value": 0.558}, {"measurement": "Average CVE 48 h", "setting": "[2]; CALU-1 Run 3, 10 μg/ml CDDP, 48 h", "value": 0.175}, {"measurement": "Average CVE 72 h", "setting": "[2]; CALU-1 Run 3, 10 μg/ml CDDP, 72 h", "value": 0.189}, {"measurement": "Average CVE 24 h", "setting": "[2]; CALU-1 Run 3, 100 μg/ml CDDP, 24 h", "value": 0.375}, {"measurement": "Average CVE 48 h", "setting": "[2]; CALU-1 Run 3, 100 μg/ml CDDP, 48 h", "value": 0.159}, {"measurement": "Average CVE 72 h", "setting": "[2]; CALU-1 Run 3, 100 μg/ml CDDP, 72 h", "value": 0.197}]}
